Source: BindingDB's records for doi:10.1021/jm00124a018 (Institute of Cancer Research, 1989)

Molecular target: Thymidylate synthase (Mus musculus, L1210)
Experiment: Inhibitory concentration of compound to inhibit Thymidylate synthase (TS) in L1210 cells at conc. of 200 uM

| IC50 [nM] | Structure (SMILES) |
| --- | --- |
| 60 | CCN(Cc1ccc2nc(N)[nH]c(=O)c2c1)c1ccc(C(=O)NC(CCC(=O)O)C(=O)O)cc1 (configuration not stated) |
| 520 | CCN(Cc1ccc2nc[nH]c(=O)c2c1)c1ccc(C(=O)NC(CCC(=O)O)C(=O)O)cc1 (configuration not stated) |
